We go through three compounds from PubChem BioAssay (NCI).

Molecules are shown by their SMILES.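 All cell lines were grown in 96-well plates and treated with compound for 48 hours. Abbreviation: GI50, concentration required for 50% inhibition of growth. TGI marks complete inhibition of growth.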 Where only a bound is given, the exact number is not on record here.

Among the test systems are CAKI-1 renal; COLO 205 colon; HL-60(TB) leukemia; MALME-3M melanoma; OVCAR-4 ovarian; SN12C renal; SR leukemia; SW-620 colon; TK-10 renal; UO-31 renal.
Common to all, as to assay: NCI-60 cell line screen, 48 h

In the case of `COC1=CC(=O)c2nc(-c3ccncc3)[nH]c2C1=O`, the GI50 with CAKI-1 renal is 86.6 µM; with COLO 205 colon it was above 100000 nM; in the assay on HL-60(TB) leukemia, above 100 µM; in the assay with MALME-3M melanoma, above 100 µM; in the assay with OVCAR-4 ovarian, 45.3 µM; in the assay with SN12C renal it was above 100000 nM. The GI50 in the assay with SR leukemia was above 100 µM; in the assay on SW-620 colon it was above 100000 nM; in the assay with TK-10 renal, above 100 µM; with UO-31 renal, 86.7 µM. The TGI in the assay on CAKI-1 renal, in the assay on COLO 205 colon, in the assay with HL-60(TB) leukemia, in the assay on MALME-3M melanoma, with OVCAR-4 ovarian and in the assay on SN12C renal was above 100 µM in each case. In addition, the TGI in the assay with SR leukemia, in the assay with SW-620 colon, in the assay with TK-10 renal and in the assay with UO-31 renal was above 100 µM throughout.

Turning to `CN(C)CC[N+]1=Nc2cccc3cccc(c23)N1`, the TGI with CAKI-1 renal was above 100 µM; with COLO 205 colon, above 71.2 µM; with HL-60(TB) leukemia it was above 60.1 µM; in the assay on MALME-3M melanoma, above 100 µM; in the assay on OVCAR-4 ovarian, above 100 µM; with SN12C renal, above 100 µM. The TGI in the assay with SR leukemia is 40.9 µM; in the assay on SW-620 colon it was above 58 µM; in the assay on TK-10 renal it was above 100 µM; in the assay with UO-31 renal, above 60.9 µM.

In the case of `O=C1C(Cl)=C(Nc2cccc(Cl)c2)C(=O)N1Cc1ccc(Cl)cc1Cl`, the GI50 is 5.36 µM in the assay with CAKI-1 renal; 1000 nM with COLO 205 colon; 7.66 µM with HL-60(TB) leukemia; 4.17 µM with MALME-3M melanoma; 0.508 µM in the assay on OVCAR-4 ovarian; 252 nM in the assay on SN12C renal. Also, the GI50 is 115 nM in the assay with SW-620 colon, 11.5 µM with TK-10 renal and 0.431 µM with UO-31 renal. The TGI was 48.5 µM with CAKI-1 renal; 16 µM with COLO 205 colon; above 100 µM with HL-60(TB) leukemia; 19 µM in the assay on MALME-3M melanoma; 7.41 µM in the assay on OVCAR-4 ovarian; 12.8 µM with SN12C renal. In addition, the TGI came to 8.9 µM in the assay on SR leukemia, 18.9 µM in the assay with SW-620 colon, 31.7 µM with TK-10 renal and 3.45 µM with UO-31 renal.
